Test results as given in PMC12615753, “Glutathione as a taste modulator: molecular mechanisms of interaction with umami and sweet taste receptors” (Food Chemistry: Molecular Sciences, 2025).

Target: T1, hTAS1R1 H71L/rTAS1R3 (Homo sapiens, UniProt Q7RTX1, H71L)
T1 construct: expressed in transfected cells; host or cells: HEK293T/17 (ATCC CRL-11268)
T1 sequence (Q7RTX1 21-841 H71L): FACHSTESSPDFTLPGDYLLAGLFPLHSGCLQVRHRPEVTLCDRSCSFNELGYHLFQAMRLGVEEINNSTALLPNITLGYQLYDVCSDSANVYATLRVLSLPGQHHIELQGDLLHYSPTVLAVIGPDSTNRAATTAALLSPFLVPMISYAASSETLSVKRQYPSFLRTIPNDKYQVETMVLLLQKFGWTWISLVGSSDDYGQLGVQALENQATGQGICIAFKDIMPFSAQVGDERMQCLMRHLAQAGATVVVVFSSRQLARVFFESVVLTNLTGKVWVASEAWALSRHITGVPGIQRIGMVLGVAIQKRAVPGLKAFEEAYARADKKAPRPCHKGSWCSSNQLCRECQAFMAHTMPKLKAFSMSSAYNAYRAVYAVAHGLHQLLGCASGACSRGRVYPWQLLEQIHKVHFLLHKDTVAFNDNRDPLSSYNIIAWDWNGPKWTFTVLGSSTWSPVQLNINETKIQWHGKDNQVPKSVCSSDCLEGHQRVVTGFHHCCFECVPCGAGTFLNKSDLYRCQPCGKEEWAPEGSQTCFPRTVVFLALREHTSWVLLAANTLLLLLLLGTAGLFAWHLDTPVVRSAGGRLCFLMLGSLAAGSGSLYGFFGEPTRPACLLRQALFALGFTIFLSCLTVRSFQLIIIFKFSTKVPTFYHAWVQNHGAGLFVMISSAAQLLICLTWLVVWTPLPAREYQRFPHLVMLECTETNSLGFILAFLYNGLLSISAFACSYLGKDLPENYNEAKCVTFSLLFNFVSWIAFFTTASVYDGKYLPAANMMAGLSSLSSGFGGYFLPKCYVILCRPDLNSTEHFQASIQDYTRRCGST
T1 sequence (Q923K1 21-858 partner): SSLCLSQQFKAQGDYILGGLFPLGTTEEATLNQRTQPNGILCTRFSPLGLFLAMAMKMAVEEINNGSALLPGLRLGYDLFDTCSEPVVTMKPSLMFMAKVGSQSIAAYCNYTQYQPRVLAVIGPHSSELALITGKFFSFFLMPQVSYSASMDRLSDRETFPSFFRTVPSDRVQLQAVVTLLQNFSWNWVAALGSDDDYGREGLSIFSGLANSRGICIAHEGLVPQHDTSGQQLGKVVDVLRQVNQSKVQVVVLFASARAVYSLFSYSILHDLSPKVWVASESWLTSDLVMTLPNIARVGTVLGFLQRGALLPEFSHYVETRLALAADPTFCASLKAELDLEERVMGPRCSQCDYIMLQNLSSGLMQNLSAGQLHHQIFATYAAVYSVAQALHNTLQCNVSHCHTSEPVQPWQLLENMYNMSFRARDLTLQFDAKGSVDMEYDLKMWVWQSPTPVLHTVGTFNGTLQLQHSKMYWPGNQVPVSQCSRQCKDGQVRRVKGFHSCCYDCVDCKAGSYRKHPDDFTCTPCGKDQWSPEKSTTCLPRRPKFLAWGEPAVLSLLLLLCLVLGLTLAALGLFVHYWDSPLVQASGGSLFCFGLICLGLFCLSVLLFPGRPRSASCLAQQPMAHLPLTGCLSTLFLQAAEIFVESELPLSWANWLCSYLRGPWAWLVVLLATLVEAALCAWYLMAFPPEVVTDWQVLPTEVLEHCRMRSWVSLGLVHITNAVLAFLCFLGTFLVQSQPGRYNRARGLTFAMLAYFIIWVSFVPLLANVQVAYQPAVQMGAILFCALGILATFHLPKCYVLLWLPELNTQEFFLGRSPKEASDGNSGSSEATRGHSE
Test: Calcium assay, hTAS1R1 mutant co-expressed with rTAS1R3
Assay type: cell-based, rat

With `N[C@@H](CCC(=O)N[C@@H](CS)C(=O)NCC(=O)O)C(=O)O` [GSH, γ-L-glutamyl-L-cysteinyl-glycine] the EC50 was 2.27 ± 0.123 mM, the “response to the agonist alone, vs WT” value (H71L) was “significantly increased the initial amplitude” and the “Max ∆F/F0” value (H71L, GSH) was 1.24 ± 0.0. For the same compound, the “R1 = mutant EC50/WT EC50” value (H71L, GSH) was 0.9.
